Laboratory results published in ChEMBL document CHEMBL1151757, “Synthesis, radiosynthesis, and biological evaluation of fluorine-18-labeled 2beta-carbo(fluoroalkoxy)-3beta-(3'-((Z)-2-haloethenyl)phenyl)nortropanes: candidate radioligands for in vivo imaging of the serotonin transporter with positron emission tomography” (J Med Chem, 2008).

Legend:
Format in all cases: ADME, organism-based, Macaca mulatta
[1] = Ratio of drug uptake in caudate to cerebellum in awake rhesus monkey after 10.5 mins postinjection; settings: in vivo, 0.175 h
[2] = Ratio of drug uptake in pons to cerebellum in awake rhesus monkey after 0.3 mins postinjection; settings: in vivo, 0.005 h
[3] = Drug uptake in awake rhesus monkey brain frontal lobe after 2.25 mins postinjection; settings: in vivo, 135 s

Compound	Ratio [1]	Ratio [2]	Drug uptake [3]
O=C(OCC[18F])C1C2CCC(CC1c1ccc(/C=C\I)cc1)N2 (stereo not drawn)	1	0	–
O=C(OCC[18F])C1C2CCC(CC1c1cccc(/C=C\I)c1)N2 (stereo not drawn)	–	–	0.02
